The nature of assay [1]: Activation of calcium influx into mouse splenocytes at 100 ug/ml relative to control. It is filed as functional, cell-based. The note with it: Splenocyte.
The next assay has as its system Ehrlich. Briefly: Induction of apoptosis in mouse Ehrlich carcinoma cells at 100 ug/ml. It is filed as functional, cell-based.

Active and inactive are the calls of the source. The calls are words filed in the database; no cut-off is given here.

On to `CC(C)=CCC[C@@H](C)[C@H]1CC[C@@]2(C(=O)O)C3=C(CC[C@]12C)[C@@]1(C)CC[C@H](O[C@@H]2OC[C@H](O)[C@H](O)[C@H]2O[C@@H]2O[C@H](CO)[C@H](O)[C@H](O)[C@H]2O)C(C)(C)[C@@H]1CC3`, for which, in assay [1], the Activity is 130%.

In the case of `C=C(CC[C@@H](C)[C@H]1CC[C@@]2(C(=O)O)C3=C(CC[C@]12C)[C@@]1(C)CC[C@H](O[C@@H]2OC[C@H](O)[C@H](O)[C@H]2O[C@@H]2O[C@H](CO)[C@H](O)[C@H](O)[C@H]2O)C(C)(C)[C@@H]1CC3)C(C)C`, the Activity in assay [1] was determined as 130%.

As to `C=C(C)[C@@H](O)CC[C@@H](C)[C@H]1CC[C@@]2(C(=O)O)C3=C(CC[C@]12C)[C@@]1(C)CC[C@H](O[C@@H]2OC[C@H](O)[C@H](O)[C@H]2O[C@@H]2O[C@H](CO)[C@H](O)[C@H](O)[C@H]2O)C(C)(C)[C@@H]1CC3`, the result in the assay on Ehrlich was Active.

Values taken from ChEMBL document CHEMBL1141422, “Isolation and structures of erylosides from the Caribbean sponge Erylus formosus” (J Nat Prod, 2007).
